Data published in patent US11547681B2, “N-acylethanolamide derivatives and uses thereof” (ELIEM THERAPEUTICS, INC., priority 2016, dated 2023).

Experiment: in vitro
Conditions: for Measured concentration of analyte PEA, 0 min / Measured concentration of analyte PEA, 10 min / Measured concentration of analyte PEA, 20 min / Measured concentration of analyte PEA, 30 min / Measured concentration of analyte PEA, 60 min / % Remaining of Initial, 0 min / % Remaining of Initial, 10 min / % Remaining of Initial, 20 min / % Remaining of Initial, 30 min / % Remaining of Initial, 60 min: 1 μM; for % Remaining of Initial, 0 min / % Remaining of Initial, 10 min / % Remaining of Initial, 20 min / % Remaining of Initial, 30 min / % Remaining of Initial, 60 min / microsomal CLint at 1 μM / half-life at 1 μM: microsomes; for % Remaining of Initial, 0 min: 0 h; for % Remaining of Initial, 30 min: 0.5 h; for % Remaining of Initial, 60 min: 1 h
Experimental: The reaction mixture, minus cofactors, was prepared as described below. The test article was added into the reaction mixture at a final concentration of 1 μM. […] An aliquot of the reaction mixture (without cofactor) was equilibrated in a shaking water bath at 37° C. for 3 minutes. The reaction was initiated by the addition of cofactor, and the mixture was incubated in a shaking water bath at 37° C. Aliquots (100 μL) were withdrawn at 0, 10, 20, 30, and 60 minutes. All samples were immediately combined with 400 μL of ice-cold 50/50 acetonitrile/H2O containing 0.1% formic acid and internal standard to terminate the reaction. The samples were then mixed and centrifuged to precipitate proteins. Calibration standards were prepared in matched matrix. All samples and standards were assayed by LC-MS/MS using electrospray ionization for both the dosed prodrug I-9 and the expected drug (PEA). Analytical conditions are outlined in Appendix 4-1. The test article concentration at each time point was compared to the test article concentration at time 0 to determine the percent remaining at each time point. Half-lives were calculated using GraphPad software, fitting to a single-phase exponential decay equation.
Reaction mixture, minus cofactors, was prepared as described below. Test article was added into the reaction mixture at a final concentration of 1 μM. […] An aliquot of the reaction mixture (without cofactor) was equilibrated in a shaking water bath at 37° C. for 3 minutes. The reaction was initiated by the addition of cofactor, and the mixture was incubated in a shaking water bath at 37° C. Aliquots (100 μL) were withdrawn at 0, 10, 20, 30, and 60 minutes. Test article samples were immediately combined with 300 μL of ice-cold acetonitrile containing 1% formic acid. Control samples were immediately combined with 400 μL of ice-cold 50/50 acetonitrile (ACN)/dH2O containing 0.1% formic acid and internal standard to terminate the reaction. Samples were then mixed and centrifuged to precipitate proteins. Calibration standards were prepared in matched matrix. Samples and standards were assayed by LC-MS/MS using electrospray ionization for both dosed prodrug and expected drug (PEA). Analytical conditions are outlined in Appendix 8-1. Test article concentration at each time point was compared to test article concentration at time 0 to determine the percent remaining at each time point. Half-lives were calculated using GraphPad software, fitting to a single-phase exponential decay equation.
Reaction mixture, minus cofactors, was prepared as described below. Test article was added into the reaction mixture at a final concentration of 1 μM. […] An aliquot of the reaction mixture (without cofactor) was equilibrated in a shaking water bath at 37° C. for 5 minutes. Reaction was initiated by the addition of cofactor, and the mixture was incubated in a shaking water bath at 37° C. Aliquots (100 μL) were withdrawn at 0, 10, 20, 30, and 60 minutes. Test article samples were immediately combined with 300 μL of ice-cold acetonitrile containing 1% formic acid. Control samples were immediately combined with 400 μL of ice-cold 50/50 acetonitrile (ACN)/dH2O containing 0.1% formic acid and internal standard to terminate the reaction. Samples were then mixed and centrifuged to precipitate proteins. Calibration standards were prepared in matched matrix. Samples and standards were assayed by LC-MS/MS using electrospray ionization for both the dosed prodrug and the expected drug (PEA). Analytical conditions are outlined in Appendix 10-1. Test article concentration at each time point was compared to the test article concentration at time 0 to determine the percent remaining at each time point. Half-lives were calculated using GraphPad software, fitting to a single-phase exponential decay equation.
Reaction mixture, minus cofactors, was prepared as described below. Test article was added into the reaction mixture at a final concentration of 1 μM.

[1] = male, Sprague-Dawley, rat, Half-life
[2] = both, human, calculated value in parentheses
[3] = both, human, Calculated half-life (in parentheses)
[4] = male, Sprague-Dawley, rat, calculated value in parentheses
[5] = male, Sprague-Dawley, rat, Calculated half-life (in parentheses)

CCCCCCCCCCCCCCCC(=O)NCCOC(=O)CCC [Compound I-2]
Measured concentration of analyte PEA, 0 min (both, human): 0.15 µM | Measured concentration of analyte PEA, 10 min (both, human): 0.23 µM | Measured concentration of analyte PEA, 20 min (both, human): 0.19 µM | Measured concentration of analyte PEA, 30 min (both, human): 0.15 µM | Measured concentration of analyte PEA, 60 min (both, human): 0.071 µM | % Remaining of Initial, 0 min (both, human): 100% | % Remaining of Initial, 10 min (both, human): 10% | % Remaining of Initial, 20 min (both, human): 1.6% | % Remaining of Initial, 30 min (both, human): <1.0% | % Remaining of Initial, 60 min (both, human): <1.0% | microsomal CLint at 1 μM (both, human): 451 µL/min/mg | half-life at 1 μM (both, human, Half-life): 3.1 min | Measured concentration of analyte PEA, 0 min (male, Sprague-Dawley, rat): 0.40 µM | Measured concentration of analyte PEA, 10 min (male, Sprague-Dawley, rat): 0.11 µM | Measured concentration of analyte PEA, 20 min (male, Sprague-Dawley, rat): 0.028 µM | Measured concentration of analyte PEA, 30 min (male, Sprague-Dawley, rat): 0.0083 µM | Measured concentration of analyte PEA, 60 min (male, Sprague-Dawley, rat): 0 µM | % Remaining of Initial, 0 min (male, Sprague-Dawley, rat): 100% | % Remaining of Initial, 10 min (male, Sprague-Dawley, rat): <1.0% | % Remaining of Initial, 20 min (male, Sprague-Dawley, rat): <1.0% | % Remaining of Initial, 30 min (male, Sprague-Dawley, rat): <1.0% | % Remaining of Initial, 60 min (male, Sprague-Dawley, rat): <1.0% | microsomal CLint at 1 μM (male, Sprague-Dawley, rat): > 1380 µL/min/mg | half-life at 1 μM [1]: < 1 min

CCCCCCCCCCCCCCCC(=O)NCCOC(=O)CCC(=O)OCC(COC(=O)CCCCCCC)OC(=O)CCCCCCC (stereo not drawn) [Compound I-3, PEA-Succinate-Glycerol-Di-Caprylic]
Measured concentration of analyte PEA, 0 min (both, human): 0 µM | Measured concentration of analyte PEA, 10 min (both, human): 0.026 µM | Measured concentration of analyte PEA, 20 min (both, human): 0.017 µM | Measured concentration of analyte PEA, 30 min (both, human): 0.019 µM | Measured concentration of analyte PEA, 60 min (both, human): 0.027 µM | % Remaining of Initial, 0 min (both, human): 100% | % Remaining of Initial, 10 min (both, human): 83% | % Remaining of Initial, 20 min (both, human): 79% | % Remaining of Initial, 30 min (both, human): 74% | % Remaining of Initial, 60 min (both, human): 53% | microsomal CLint at 1 μM (both, human): < 23.1 µL/min/mg | microsomal CLint at 1 μM [2]: 20 µL/min/mg | half-life at 1 μM [3]: 69 min | half-life at 1 μM (both, human, Half-life): > 60 min | Measured concentration of analyte PEA, 0 min (male, Sprague-Dawley, rat): 0.032 µM | Measured concentration of analyte PEA, 10 min (male, Sprague-Dawley, rat): 0.039 µM | Measured concentration of analyte PEA, 20 min (male, Sprague-Dawley, rat): 0.018 µM | Measured concentration of analyte PEA, 30 min (male, Sprague-Dawley, rat): 0.0067 µM | Measured concentration of analyte PEA, 60 min (male, Sprague-Dawley, rat): 0 µM | % Remaining of Initial, 0 min (male, Sprague-Dawley, rat): 100% | % Remaining of Initial, 10 min (male, Sprague-Dawley, rat): 81% | % Remaining of Initial, 20 min (male, Sprague-Dawley, rat): 88% | % Remaining of Initial, 30 min (male, Sprague-Dawley, rat): 72% | % Remaining of Initial, 60 min (male, Sprague-Dawley, rat): 68% | microsomal CLint at 1 μM (male, Sprague-Dawley, rat): < 23.1 µL/min/mg | microsomal CLint at 1 μM [4]: 12.4 µL/min/mg | half-life at 1 μM [5]: 112 min | half-life at 1 μM [1]: > 60 min

CC/C=C\C/C=C\C/C=C\C/C=C\C/C=C\CCCC(=O)OCCNC(=O)CCCCCCCCCCCCCCC [Compound I-5]
Measured concentration of analyte PEA, 0 min (both, human): 0.014 µM | Measured concentration of analyte PEA, 10 min (both, human): 0.020 µM | Measured concentration of analyte PEA, 20 min (both, human): 0.025 µM | Measured concentration of analyte PEA, 30 min (both, human): 0.022 µM | Measured concentration of analyte PEA, 60 min (both, human): 0.016 µM | % Remaining of Initial, 0 min (both, human): 100% | % Remaining of Initial, 10 min (both, human): 90% | % Remaining of Initial, 20 min (both, human): 82% | % Remaining of Initial, 30 min (both, human): 79% | % Remaining of Initial, 60 min (both, human): 62% | microsomal CLint at 1 μM (both, human): < 23.1 µL/min/mg | microsomal CLint at 1 μM [2]: 15.4 µL/min/mg | half-life at 1 μM [3]: 90 min | half-life at 1 μM (both, human, Half-life): > 60 min | Measured concentration of analyte PEA, 0 min (male, Sprague-Dawley, rat): 0.034 µM | Measured concentration of analyte PEA, 10 min (male, Sprague-Dawley, rat): 0.033 µM | Measured concentration of analyte PEA, 20 min (male, Sprague-Dawley, rat): 0.015 µM | Measured concentration of analyte PEA, 30 min (male, Sprague-Dawley, rat): 0.015 µM | Measured concentration of analyte PEA, 60 min (male, Sprague-Dawley, rat): 0.0027 µM | % Remaining of Initial, 0 min (male, Sprague-Dawley, rat): 100% | % Remaining of Initial, 10 min (male, Sprague-Dawley, rat): 77% | % Remaining of Initial, 20 min (male, Sprague-Dawley, rat): 70% | % Remaining of Initial, 30 min (male, Sprague-Dawley, rat): 69% | % Remaining of Initial, 60 min (male, Sprague-Dawley, rat): 57% | microsomal CLint at 1 μM (male, Sprague-Dawley, rat): < 23.1 µL/min/mg | microsomal CLint at 1 μM [4]: 18.6 µL/min/mg | half-life at 1 μM [5]: 75 min | half-life at 1 μM [1]: > 60 min

CCCCC/C=C\C/C=C\CCCCCCCC(=O)OCCNC(=O)CCCCCCCCCCCCCCC [Compound I-6]
Measured concentration of analyte PEA, 0 min (both, human): 0 µM | Measured concentration of analyte PEA, 10 min (both, human): 0 µM | Measured concentration of analyte PEA, 20 min (both, human): 0 µM | Measured concentration of analyte PEA, 30 min (both, human): 0 µM | Measured concentration of analyte PEA, 60 min (both, human): 0 µM | % Remaining of Initial, 0 min (both, human): 100% | % Remaining of Initial, 10 min (both, human): 82% | % Remaining of Initial, 20 min (both, human): 58% | % Remaining of Initial, 30 min (both, human): 66% | % Remaining of Initial, 60 min (both, human): 68% | microsomal CLint at 1 μM (both, human): < 23.1 µL/min/mg | microsomal CLint at 1 μM [2]: 14.3 µL/min/mg | half-life at 1 μM [3]: 97 min | half-life at 1 μM (both, human, Half-life): > 60 min | Measured concentration of analyte PEA, 0 min (male, Sprague-Dawley, rat): 0.14 µM | Measured concentration of analyte PEA, 10 min (male, Sprague-Dawley, rat): 0.064 µM | Measured concentration of analyte PEA, 20 min (male, Sprague-Dawley, rat): 0.017 µM | Measured concentration of analyte PEA, 30 min (male, Sprague-Dawley, rat): 0.0098 µM | Measured concentration of analyte PEA, 60 min (male, Sprague-Dawley, rat): 0.0012 µM | % Remaining of Initial, 0 min (male, Sprague-Dawley, rat): 100% | % Remaining of Initial, 10 min (male, Sprague-Dawley, rat): 68% | % Remaining of Initial, 20 min (male, Sprague-Dawley, rat): 67% | % Remaining of Initial, 30 min (male, Sprague-Dawley, rat): 62% | % Remaining of Initial, 60 min (male, Sprague-Dawley, rat): 53% | microsomal CLint at 1 μM (male, Sprague-Dawley, rat): < 23.1 µL/min/mg | microsomal CLint at 1 μM [4]: 21.9 µL/min/mg | half-life at 1 μM [5]: 63 min | half-life at 1 μM [1]: > 60 min
